What all share (type): cell-based
The subject of one assay is HT1197 bladder cell line. The assay is described as follows: 7-day proliferation assay, HT1197. The settings on record: Homo sapiens, 168 h; HT1197, 7 days, CellTiter-Glo. The procedure:
(§1) This example describes methods and materials for 7-day proliferation assay.
(§2) A total of 22 bladder cell lines were used (see table below). Cell lines were cultured in recommended growth media according to supplier.
(§3) Cells were in culture media at a density optimized for a 7-day culture in a final volume of 150 μL per well in white opaque 96-well plates. Cells were allowed to adhere for several hours (4-6 h) then compounds were added with HPD300 Digital Dispenser and placed into the incubator at 37° C., 5% CO2 for 7 days. After 7 days incubation, 100 μL of CellTiter-Glo® Luminescent Cell Viability Assay (Promega-G7573) reagents were added per well. After 20 minutes incubation luminescence was measured in plate reader. IC50 were calculated from a non-linear logarithmic growth curve.
(§4) IC50 values (nanomolar (nM)) are summarized in the table below, which depicts the inhibitory effect of certain compounds in bladder cell lines.
Background: In ATP-based viability assays light output follows the ATP content of the culture.

Another assay deals with HT1376 bladder cell line. Kind of assay: 7-day proliferation assay, HT1376. The settings on record: Homo sapiens, HT-1376, 168 h; HT1376, 7 days, CellTiter-Glo. The procedure: as §1, §2, §3, §4
The test system of assay [1] is HB-CLS-2 bladder cell line. The assay is described as follows: 7-day proliferation assay, HB-CLS-2. Conditions: 168 h; HB-CLS-2, 7 days, CellTiter-Glo. How it is done:
as §1, §2, §3, §4

The test system of another assay is TCCSUP bladder cell line. Kind of assay: 7-day proliferation assay, TCCSUP. Conditions: Homo sapiens, TCC-SUP, 168 h, 7 days, CellTiter-Glo. The procedure:
as §1, §2, §3, §4

The subject of assay [2] is H3K18Ac in HB-CLS-2 cells. The assay is described as follows: H3K18AC in-cell western (ICW) assay. The settings on record: H3K18Ac in-cell western; read-out: CREBBP ICW IC50. The method in brief:
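In-cell western: after methanol fixation, blocking, overnight 4° C anti-H3K18Ac staining, then 800CW secondary plus DRAQ5 for DNA content, integrated intensities were scanned at 800 and 700 nm. Before this, compound exposure lasted 2 hr at 37° C in HB-CLS-2 cells plated 16–24 hours earlier. Values expressed as IC50 (μM).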

A further assay relates to RT112 bladder cell line. The assay is described as follows: 7-day proliferation assay, RT112. Conditions: Homo sapiens, RT-112, 168 h; RT112, 7 days, CellTiter-Glo. The procedure: as §1, §2, §3, §4
A further assay has as its system BC3C bladder cell line. The assay is described as follows: 7-day proliferation assay, BC3C. The settings on record: 168 h, 7 days, CellTiter-Glo. How it is done:
as §1, §2, §3, §4

The subject of another assay is JMSU1 bladder cell line. Kind of assay: 7-day proliferation assay, JMSU1. The settings on record: JMSU-1, 168 h; JMSU1, 7 days, CellTiter-Glo. The procedure:
as §1, §2, §3, §4

For assay [3], the system named is UM-UC-3 bladder cell line. The assay is described as follows: 7-day proliferation assay, UM-UC-3. Conditions: Homo sapiens, UMUC3, 168 h; UM-UC-3, 7 days, CellTiter-Glo. How it is done:
as §1, §2, §3, §4

Another assay has as its system CAL29 bladder cell line. Kind of assay: 7-day proliferation assay, CAL29. Conditions: 168 h; CAL29, 7 days, CellTiter-Glo. The procedure:
as §1, §2, §3, §4

Another assay has as its system UBLC1 bladder cell line. The assay is described as follows: 7-day proliferation assay, UBLC1. The settings on record: 168 h; UBLC1, 7 days, CellTiter-Glo. The procedure: as §1, §2, §3, §4
Assay [4] concerns BFTC905 bladder cell line. The assay is described as follows: 7-day proliferation assay, BFTC905. The settings on record: Homo sapiens, BFTC-905, 168 h; BFTC905, 7 days, CellTiter-Glo. The procedure:
as §1, §2, §3, §4

A further assay deals with SW1710 bladder cell line. The assay is described as follows: 7-day proliferation assay, SW1710. Conditions: Homo sapiens, 168 h; SW1710, 7 days, CellTiter-Glo. The procedure:
as §1, §2, §3, §4

Another assay concerns 639V bladder cell line. Kind of assay: 7-day proliferation assay, 639V. The settings on record: Homo sapiens, 168 h, 7 days, CellTiter-Glo. The procedure:
as §1, §2, §3, §4

For a further assay, the system named is KU1919 bladder cell line. The assay is described as follows: 7-day proliferation assay, KU1919. Conditions: Homo sapiens, KU-19-19, 168 h; KU1919, 7 days, CellTiter-Glo. How it is done: as §1, §2, §3, §4
For a further assay, the system named is 5637 bladder cell line. Kind of assay: 7-day proliferation assay, 5637. The settings on record: 168 h; 5637, 7 days, CellTiter-Glo. How it is done:
as §1, §2, §3, §4

For the next assay, the system named is VMCUB1 bladder cell line. Kind of assay: 7-day proliferation assay, VMCUB1. Conditions: Homo sapiens, VM-CUB-1, 168 h; VMCUB1, 7 days, CellTiter-Glo. How it is done:
as §1, §2, §3, §4

For 4 molecules, IC50 results are on record in patent US20220144812A1, “QUINOLINE DERIVATIVES AND THEIR USE FOR THE TREATMENT OF CANCER” (Epizyme, Inc., priority 2019, published 2022).

As to `CCn1ncc(CN(C)C(=O)c2cc(-c3ccc(NCCNC)c(C)n3)nc3ccc(Cl)cc23)c1C` [Compound 3, 6-chloro-N-[(1-ethyl-5-methyl-1H-pyrazol-4-yl)methyl]-N-methyl-2-(6-methyl-5-{[2-(methylamino)ethyl]amino}pyridin-2-yl)quinoline-4-carboxamide], the concentration for half-maximal inhibition (IC50) (commonly the midpoint of a concentration-inhibition curve) with HT1197 bladder cell line worked out at 154 nM; in the assay on HT1376 bladder cell line it was 3890 nM; in assay [1], 220 nM; with TCCSUP bladder cell line, 7600 nM; in [2] it was 40 nM; in the assay with RT112 bladder cell line, 111 nM. In addition, the IC50 in the assay on BC3C bladder cell line was 5100 nM; in the assay with JMSU1 bladder cell line, 378 nM; in [3], 792 nM; with CAL29 bladder cell line, 1990 nM; in the assay with UBLC1 bladder cell line, 141 nM; in assay [4], 122 nM. The IC50 in the assay on SW1710 bladder cell line was 290 nM; in the assay with 639V bladder cell line, 40 nM; in the assay on KU1919 bladder cell line it was 145 nM; with 5637 bladder cell line, 133 nM; with VMCUB1 bladder cell line it was 69 nM.
Turning to `CCc1ncc(CN(C)C(=O)c2cc(-c3ccc(NCCN(C)C)c(C)n3)nc3ccc(Cl)cc23)n1C` [Compound 577], the IC50 with HT1197 bladder cell line turned out to be 234 nM; in the assay on HT1376 bladder cell line it was 2070 nM; in [1] it was 240 nM; with TCCSUP bladder cell line, 10000 nM; in [2], 85.4 nM; in the assay on RT112 bladder cell line it was 78 nM. Besides, the IC50 came to 1190 nM in the assay with BC3C bladder cell line; 997 nM with JMSU1 bladder cell line; 1100 nM in [3]; 1200 nM in the assay with CAL29 bladder cell line; 427 nM with UBLC1 bladder cell line; 132 nM in assay [4]. Besides, the IC50 in the assay on SW1710 bladder cell line came to 143 nM; in the assay on 639V bladder cell line it was 100 nM; with KU1919 bladder cell line it was 102 nM; with 5637 bladder cell line, 111 nM; in the assay with VMCUB1 bladder cell line, 51 nM.
Regarding `CCn1ncc(CN(C)C(=O)c2cc(-c3ccc(NC4CN(C)C4)c(C)n3)nc3ccc(Cl)cc23)c1C` [Compound 480], the IC50 in the assay with HT1197 bladder cell line is 112 nM; in the assay on HT1376 bladder cell line, 1250 nM; in [1] it was 344 nM; in the assay with TCCSUP bladder cell line, 10000 nM; in assay [2] it was 23.1 nM; in the assay with RT112 bladder cell line, 198 nM. The 50% inhibitory concentration (IC50) was 10000 nM with BC3C bladder cell line; 546 nM with JMSU1 bladder cell line; 584 nM in assay [3]; 524 nM in the assay on CAL29 bladder cell line; 234 nM in the assay on UBLC1 bladder cell line; 110 nM in assay [4]. In addition, the concentration for half-maximal inhibition (IC50) amounted to 184 nM in the assay on SW1710 bladder cell line; 57 nM with 639V bladder cell line; 90.5 nM in the assay on KU1919 bladder cell line; 147 nM in the assay with 5637 bladder cell line; 116 nM with VMCUB1 bladder cell line.
For `CCc1noc(CN(C)C(=O)c2cc(-c3ccc(NCCNC)c(C)n3)nc3ccc(Cl)cc23)c1C` [Compound 537], the IC50 in the assay with HT1197 bladder cell line is 346 nM; with HT1376 bladder cell line it was 2760 nM; in assay [1], 434 nM; with TCCSUP bladder cell line, 10000 nM; in assay [2], 48.3 nM; with RT112 bladder cell line, 370 nM. The IC50 in the assay on BC3C bladder cell line is 4060 nM; in the assay on JMSU1 bladder cell line, 748 nM; in [3], 1380 nM; in the assay on CAL29 bladder cell line it was 704 nM; with UBLC1 bladder cell line, 494 nM; in [4], 224 nM. The IC50 is 190 nM in the assay with SW1710 bladder cell line; 99.5 nM in the assay on 639V bladder cell line; 217 nM in the assay with KU1919 bladder cell line; 197 nM with 5637 bladder cell line; 116 nM in the assay on VMCUB1 bladder cell line.
